According to patent publication US20090030039A1, “Piperidine Derivatives as Cxcr3 Receptor Antagonists” (priority 2006, published 2009):

Assays:
[1] = target: T1, human CXCR3 (Homo sapiens, UniProt P49682); assay: [35S]GTPγS exchange assay, CXCR3 receptor inhibition (hI-TAC-induced GTPγS-binding); type: biochemical; details: -log IC50 (molar) inhibiting 50% of specific I-TAC-induced GTPγS-binding, membranes of human CXCR3-transfected CHO cells; for IC50: read-out: pIC50 (converted)
T1 construct: expressed in transfected cells; host or cells: CHO cells (membrane preparation)
T1 sequence (P49682 1-368): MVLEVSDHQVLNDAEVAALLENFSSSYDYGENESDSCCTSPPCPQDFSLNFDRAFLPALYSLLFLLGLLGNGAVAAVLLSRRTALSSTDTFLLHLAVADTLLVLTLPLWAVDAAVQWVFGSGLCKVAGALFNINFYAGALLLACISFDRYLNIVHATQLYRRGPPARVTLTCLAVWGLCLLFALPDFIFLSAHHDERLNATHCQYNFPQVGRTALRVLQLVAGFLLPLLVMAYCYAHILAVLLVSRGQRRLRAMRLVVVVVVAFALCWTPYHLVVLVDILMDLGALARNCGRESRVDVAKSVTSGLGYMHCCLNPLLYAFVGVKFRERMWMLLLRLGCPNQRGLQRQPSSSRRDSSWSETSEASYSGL

SMILES | melting point [°C] | pIC50 [1] | IC50 [1] [µM]
Cl.O=C1CCC(c2ccc(F)cc2F)(C2CCN(Cc3ccc(Cl)c(F)c3)CC2)C(=O)N1 (single isomer, unassigned) [Compound 203] | 282 to 285.9 | – | 0.0794
Cl.O=C1CCC(c2ccc(F)cc2F)(C2CCN(Cc3ccc(Cl)c(F)c3)CC2)C(=O)N1 (single isomer, unassigned) [Compound 204] | 282 to 283.8 | – | 0.251

The next lines start with results.

melting point [°C] | pIC50 [1] | SMILES | IC50 [1] [µM]
192.3 to 196.3 | 6.4 | O=C1CCC(c2ccccc2)(C2CCN(Cc3ccc(Cl)c(F)c3)CC2)C(=O)N1 (single isomer, unassigned) [Compound 41] | –
273.9 to 278.3 | – | Cl.O=C1CCC(c2ccc(F)cc2F)(C2CCN(Cc3ccc(Br)cc3)CC2)C(=O)N1 (single isomer, unassigned) [Compound 195] | 0.316
298.1 to 303.1 | 5.6 | CN1C(=O)CCC(c2ccccc2)(C2CCN(Cc3ccc(Br)cc3)CC2)C1=O (stereo not shown) [Compound 125] | –
